Some results are limits rather than exact numbers.

One assay deals with human PDE4D catalytic domain (Homo sapiens (Human), UniProt Q08499). Description: PDE4 Assay (TR-FRET, FAM-cAMP cleavage). Particulars: Table 17, Examples 297-316; read-out: PDE4 IC50 range. Format: biochemical. How it is done: The human PDE4D catalytic domain (UniProt no. Q08499 [S380-L740]) was incubated with a mixture of non-labelled cAMP (cyclic adenosine monophosphate) and fluorescein amidite (FAM) conjugated cAMP and titrated test or reference Compound. Following brief incubation the enzymatic reaction was stopped by addition of binding buffer containing nanoparticles with immobilized trivalent metal ions capable of binding 1) AMP phospho groups and 2) terbium (Tb) donor fluorophores. Subsequent excitation of the Tb donor triggers time-resolved FRET to adjacent FAM acceptor molecules resulting in light emission. In the presence of a PDE4 inhibitor, AMP generation was reduced resulting in a lower fluorescence signal. The cAMP phosphodiester is not bound by the detection system.
Chain of human PDE4D catalytic domain (Q08499 380-740): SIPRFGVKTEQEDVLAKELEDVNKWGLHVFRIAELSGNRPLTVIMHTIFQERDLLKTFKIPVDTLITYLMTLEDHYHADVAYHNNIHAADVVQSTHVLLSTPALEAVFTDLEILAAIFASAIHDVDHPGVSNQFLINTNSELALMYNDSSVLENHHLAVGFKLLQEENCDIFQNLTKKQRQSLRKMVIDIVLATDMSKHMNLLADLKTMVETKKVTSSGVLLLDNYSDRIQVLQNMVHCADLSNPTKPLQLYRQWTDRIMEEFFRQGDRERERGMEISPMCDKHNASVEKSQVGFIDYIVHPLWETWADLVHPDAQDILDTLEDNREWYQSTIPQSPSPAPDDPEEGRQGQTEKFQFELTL
The results were calculated as the molar concentrations resulting in 50% inhibition of the substrate cleavage compared to controls samples, and are expressed as a range of IC50 (nM).
A general note: Time-resolved FRET reads energy transfer from a long-lived donor to a nearby acceptor.
Broadly, the IC50 is the concentration that gives 50% inhibition. As to `CCn1nc(CC(C)(C)COC(=O)c2cc(C)n(C)n2)c2c1C(=O)NCC1(CCOCC1)C2` [Example 309, [3-(1-ethyl-8-oxo-spiro[6,7-dihydro-4H-pyrazolo[3,4-c]azepine-5,4′-tetrahydro-pyran]-3-yl)-2,2-dimethyl-propyl] 1,5-dimethylpyrazole-3-carboxylate], the IC50 is below 100 nM.

On to `CCn1nc(CC(C)(C)COC(=O)c2coc(C)n2)c2c1C(=O)NCC1(CCOCC1)C2` [Example 301, [3-(1-ethyl-8-oxo-spiro[6,7-dihydro-4H-pyrazolo[3,4-c]azepine-5,4′-tetrahydropyran]-3-yl)-2,2-dimethyl-propyl] 2-methyloxazole-4-carboxylate], for which the IC50 is below 100 nM.

Still in this assay, the particulars now being: human PDE4D catalytic domain (UniProt Q08499 [S380-L740]); 50% inhibition of substrate cleavage; read-out: PDE4 IC50 range.
With `CCn1nc(CCCOC(=O)c2cocn2)c2c1C(=O)NCC1(CCOCC1)C2` [Example 235, 3-(1-ethyl-8-oxo-spiro[6,7-dihydro-4H-pyrazolo[3,4-c]azepine-5,4′-tetrahydro-pyran]-3-yl)propyl oxazole-4-carboxylate], the IC50 was below 100 nM.

In the case of `CCn1nc(CC(C)(C)COC(=O)c2ccc(S(C)(=O)=O)cc2)c2c1C(=O)NCC1(CCOCC1)C2` [Example 202, [3-(1-ethyl-8-oxo-spiro[6,7-dihydro-4H-pyrazolo[3,4-c]azepine-5,4′-tetrahydropyran]-3-yl)-2,2-dimethyl-propyl] 4-methylsulfonylbenzoate], the IC50 was below 100 nM.

With `CCn1nc(CCCOC(=O)c2cncs2)c2c1C(=O)NCC1(CCOCC1)C2` [Example 245, 3-(1-ethyl-8-oxo-spiro[6,7-dihydro-4H-pyrazolo[3,4-c]azepine-5,4′-tetrahydropyran]-3-yl)propyl thiazole-5-carboxylate], the IC50 was below 100 nM.

In the case of `CCn1nc(CCCOC(=O)c2cc(F)cc(C#N)c2)c2c1C(=O)NCC1(CCOCC1)C2` [Example 29, 3-(1-ethyl-8-oxo-spiro[6,7-dihydro-4H-pyrazolo[3,4-c]azepine-5,4′-tetrahydropyran]-3-yl)propyl 3-cyano-5-fluoro-benzoate], the concentration for half-maximal inhibition (IC50) was below 100 nM.

On to `CCn1nc(CCCOC(=O)c2ccc(S(=O)(=O)C(C)C)cc2)c2c1C(=O)NCC1(CCOCC1)C2` [Example 93, 3-(1-ethyl-8-oxo-spiro[6,7-dihydro-4H-pyrazolo[3,4-c]azepine-5,4′-tetrahydropyran]-3-yl)propyl 4-isopropylsulfonylbenzoate], for which the IC50 was below 100 nM.

Take `CCn1nc(CCCOC(=O)c2cc(Cl)cc(C(F)(F)F)c2)c2c1C(=O)NCC1(CCOCC1)C2` [Example 90, 3-(1-ethyl-8-oxo-spiro[6,7-dihydro-4H-pyrazolo[3,4-c]azepine-5,4′-tetrahydro-pyran]-3-yl)propyl 3-chloro-5-(trifluoromethyl)benzoate]: the 50% inhibitory concentration (IC50) was below 100 nM.

Regarding `CCn1nc(CC(C)(C)COC(=O)c2cccc(C(=O)N3CCN(C)CC3)c2)c2c1C(=O)NCC1(CCOCC1)C2` [Example 233, [3-(1-ethyl-8-oxo-spiro[6,7-dihydro-4H-pyrazolo[3,4-c]azepine-5,4′-tetrahydro-pyran]-3-yl)-2,2-dimethyl-propyl] 3-(4-methyl-piperazine-1-carbonyl)-benzoate], the IC50 was below 100 nM.

Turning to `CCn1nc(CCCCOC(=O)C2CCOC2)c2c1C(=O)NCC1(CCOCC1)C2` (stereo not drawn) [Example 265, 4-(1-ethyl-8-oxo-spiro[6,7-dihydro-4H-pyrazolo[3,4-c]azepine-5,4′-tetrahydropyran]-3-yl)butyl tetrahydrofuran-3-carboxylate], the IC50 was below 100 nM.

`CCn1nc(C[C@@H](C)COC(=O)c2ccc(S(=O)(=O)N3CCOCC3)cc2)c2c1C(=O)NCC1(CCOCC1)C2` [Example 165, [(2R)-3-(1-ethyl-8-oxo-spiro[6,7-dihydro-4H-pyrazolo[3,4-c]azepine-5,4′-tetrahydropyran]-3-yl)-2-methyl-propyl] 4-morpholinosulfonylbenzoate]: the IC50 was below 100 nM.

Take `CCn1nc(CCCOC(=O)c2ccc(C)c(C)c2)c2c1C(=O)NCC1(CCOCC1)C2` [Example 13, 3-(1-ethyl-8-oxo-spiro[6,7-dihydro-4H-pyrazolo[3,4-c]azepine-5,4′-tetrahydropyran]-3-yl) propyl 3,4-dimethylbenzoate]: the IC50 is below 100 nM.

Regarding `CCn1nc(C[C@@H](C)COC(=O)c2cccc(C(=O)NC)c2)c2c1C(=O)NCC1(CCOCC1)C2` [Example 179, [(2R)-3-(1-ethyl-8-oxo-spiro[6,7-dihydro-4H-pyrazolo[3,4-c]azepine-5,4′-tetrahydropyran]-3-yl)-2-methyl-propyl] 3-(methylcarbamoyl)benzoate], the IC50 was below 100 nM.

Turning to `CCn1nc(CCCCOC(=O)c2cnc(C)nc2)c2c1C(=O)NCC1(CCOCC1)C2` [Example 271, 4-(1-ethyl-8-oxo-spiro[6,7-dihydro-4H-pyrazolo[3,4-c]azepine-5,4′-tetrahydropyran]-3-yl)butyl 2-methylpyrimidine-5-carboxylate], the IC50 is below 100 nM.

On to `CCc1nc(C(=O)OCCCc2nn(CC)c3c2CC2(CCOCC2)CNC3=O)co1` [Example 251, 3-(1-ethyl-8-oxo-spiro[6,7-dihydro-4H-pyrazolo[3,4-c]azepine-5,4′-tetrahydropyran]-3-yl)propyl 2-ethyloxazole-4-carboxylate], for which the IC50 is below 100 nM.

For `CCn1nc(C[C@@H](C)COC(=O)c2ccc(S(=O)(=O)N(C)C)cc2)c2c1C(=O)NCC1(CCOCC1)C2` [Example 161, [(2R)-3-(1-ethyl-8-oxo-spiro[6,7-dihydro-4H-pyrazolo[3,4-c]azepine-5,4′-tetrahydropyran]-3-yl)-2-methyl-propyl] 4-(di-methylsulfamoyl)benzoate], the IC50 was below 100 nM.

As to `CCn1nc(CC(C)(C)COC(=O)c2cccc(S(=O)(=O)N3CCOCC3)c2)c2c1C(=O)NCC1(CCOCC1)C2` [Example 212, [3-(1-ethyl-8-oxo-spiro[6,7-dihydro-4H-pyrazolo[3,4-c]azepine-5,4′-tetrahydropyran]-3-yl)-2,2-dimethyl-propyl] 3-morpholinosulfonylbenzoate], the IC50 is below 100 nM.

Turning to `CCn1nc(CC(C)(C)COC(=O)c2ccc(S(=O)(=O)N3CCOCC3)cc2)c2c1C(=O)NCC1(CCOCC1)C2` [Example 213, [3-(1-ethyl-8-oxo-spiro[6,7-dihydro-4H-pyrazolo[3,4-c]azepine-5,4′-tetrahydropyran]-3-yl)-2,2-dimethyl-propyl] 4-morpholinosulfonylbenzoate], the IC50 was below 100 nM.

In the case of `CCn1nc(C[C@@H](C)COC(=O)c2cccc(F)c2)c2c1C(=O)NCC1(CCOCC1)C2` [Example 143, [(2R)-3-(1-ethyl-8-oxo-spiro[6,7-dihydro-4H-pyrazolo[3,4-c]azepine-5,4′-tetrahydropyran]-3-yl)-2-methyl-propyl] 3-fluorobenzoate], the IC50 is below 100 nM.

For `CCn1nc(CCCOC(=O)c2cc(C(F)(F)F)ccc2F)c2c1C(=O)NCC1(CCOCC1)C2` [Example 73, 3-(1-ethyl-8-oxo-spiro[6,7-dihydro-4H-pyrazolo[3,4-c]azepine-5,4′-tetrahydro-pyran]-3-yl)propyl 2-fluoro-5-(trifluoromethyl)benzoate], the IC50 is below 100 nM.

Consider `CCn1nc(CCCOC(=O)c2ccc(F)cc2)c2c1C(=O)NCC1(CCOCC1)C2` [Example 10, 3-(1-ethyl-8-oxo-spiro[6,7-dihydro-4H-pyrazolo[3,4-c]azepine-5,4′-tetrahydropyran]-3-yl)propyl 4-fluorobenzoate], for which the IC50 was below 100 nM.

Values taken from patent US10793580B2, “Substituted pyrazoloazepin-8-ones and their use as phosphodiesterase inhibitors” (LEO Pharma A/S, priority 2016, dated 2020).
